Data from article PMC11671526, “β-caryophyllene sensitizes hepatocellular carcinoma cells to chemotherapeutics and inhibits cell malignancy through targeting MAPK signaling pathway” (Frontiers in Pharmacology, 2024).
Like-named read-outs stand apart in the source and are kept apart here.

Columns and labels:
Assay type in all cases: cell-based, human
[1] = system: HL-7702 normal liver cells; assay: CCK8 cell viability assay; settings: for effect of combination with BCP (isobologram analysis): HL-7702, BCP 25-150 μM combined with DOX or DDP; for IC50: HL-7702, 48 h, individual treatment, read-out: IC50 (half maximal inhibitory concentration)
Protocol: (§1) Cell viability assay using the CCK8 reagent (Bimake, Shanghai, China) was conducted according to the manufacturer’s instructions. The cell proliferation data were used to calculate the cell viability. Briefly, HepG2, SMMC-7721, and HL-7702 cells with a density of 5 × 10^3 cells/well were seeded into each well of 96-well plates and incubated overnight. […] After 48 h, 10 µL of CCK8 reagent was added to each well, followed by 2 h incubation at 37°C and measurement of absorbance at 450 nm using a microplate reader (Molecular Devices, LLC.). […] The effects of the combinatorial inhibition were visualized by isobologram analyses ([Tallarida, 2001]). […] A line was drawn to link the two IC50 points. […] The dots above, on, or below the line indicate the “antagonistic,” “additive” and “synergistic” effects, respectively. The same method was used to obtain the CI value for the cotreatment of BCP and DDP.

SMMC-7721 cells [2] = assay: CCK8 cell viability assay; settings: for IC50: SMMC-7721, 48 h, individual treatment, read-out: IC50 (half maximal inhibitory concentration); for effect of combination with BCP (isobologram analysis): SMMC-7721, BCP 25-150 μM combined with DOX or DDP
Protocol: as §1

HepG2 cells [3] = assay: CCK8 cell viability assay; settings: for effect of combination with BCP (isobologram analysis): HepG2, BCP 25-150 μM combined with DOX or DDP; for IC50: HepG2, 48 h, individual treatment, read-out: IC50 (half maximal inhibitory concentration)
Protocol: as §1

SMMC-7721 cells [4] = assay: Annexin V-FITC/PI cell apoptosis assay (flow cytometry); settings: SMMC-7721, 48 h; BCP 150 µM, DOXL 0.2 µM, DOXH 1.5 µM, DDPL 5 µM, DDPH 30 µM
Protocol: (§2) The cell apoptosis assay was performed as previously described ([Zhong et al., 2019]; [Farooq et al., 2023]). […] Ltd., Nanjing, China). The cells were analyzed using flow cytometer (BECKMAN COULTER, cytoFLEX, United States).

HepG2 cells [5] = assay: as above; settings: HepG2, 48 h; BCP 150 µM, DOXL 0.2 µM, DOXH 1.5 µM, DDPL 5 µM, DDPH 30 µM
Protocol: as §2

HL-7702 cells = assay: as above; settings: HL-7702, 48 h, BCP 150 µM, DOXL 0.2 µM, DOXH 1.5 µM, DDPL 5 µM, DDPH 30 µM
Protocol: as §2

[6] = SMMC-7721, cotreatment with 25 μM BCP
[7] = SMMC-7721, cotreatment with 50 μM BCP
[8] = SMMC-7721, cotreatment with 75 μM BCP
[9] = SMMC-7721, cotreatment with 100 μM BCP
[10] = SMMC-7721, cotreatment with 150 μM BCP
[11] = HepG2, cotreatment with 25 μM BCP
[12] = HepG2, cotreatment with 50 μM BCP
[13] = HepG2, cotreatment with 75 μM BCP
[14] = HepG2, cotreatment with 100 μM BCP
[15] = HepG2, cotreatment with 150 μM BCP

| Structure (SMILES) | effect of combination with BCP (isobologram analysis) [1] | effect of combination with BCP (isobologram analysis) (SMMC-7721 cells [2]) | combination index (CI) (SMMC-7721 cells [2]; [6]) | combination index (CI) (SMMC-7721 cells [2]; [7]) | combination index (CI) (SMMC-7721 cells [2]; [8]) | combination index (CI) (SMMC-7721 cells [2]; [9]) | combination index (CI) (SMMC-7721 cells [2]; [10]) | effect of combination with BCP (isobologram analysis) (HepG2 cells [3]) | combination index (CI) (HepG2 cells [3]; [11]) | combination index (CI) (HepG2 cells [3]; [12]) | combination index (CI) (HepG2 cells [3]; [13]) | combination index (CI) (HepG2 cells [3]; [14]) | combination index (CI) (HepG2 cells [3]; [15]) | apoptotic rate (SMMC-7721 cells [4]) | apoptotic rate (HepG2 cells [5]) | other results |
| --- | --- | --- | --- | --- | --- | --- | --- | --- | --- | --- | --- | --- | --- | --- | --- | --- |
| COc1cccc2c1C(=O)c1c(O)c3c(c(O)c1C2=O)C[C@@](O)(C(=O)CO)C[C@@H]3O[C@H]1C[C@H](N)[C@H](O)[C@H](C)O1 [DOX, doxorubicin] | additive | synergistic | 0.48 | 0.53 | 0.50 | 0.55 | 0.65 | synergistic | 0.53 | 0.58 | 0.56 | 0.65 | 0.85 | 8.74% ± 1.32% | 13.40% ± 0.65% | IC50 ([1]; Homo sapiens, L02): 0.82 ± 0.09 µM; IC50 (SMMC-7721 cells [2]; Homo sapiens): 1.76 ± 0.13 µM; IC50 (HepG2 cells [3]; Homo sapiens): 1.99 ± 0.2 µM; apoptotic rate (HL-7702 cells; listed as DOXH): 33.83% ± 1.27%; apoptotic rate (HL-7702 cells; listed as DOXL): 13.04% ± 0.57% |
| N.N.[Cl][Pt][Cl] [DDP, cisplatin] | additive | synergistic | 0.59 | 0.57 | 0.52 | 0.51 | 0.58 | synergistic | 0.74 | 0.71 | 0.66 | 0.68 | 0.88 | 7.67% ± 0.46% | 11.40% ± 0.52% | IC50 [1]: 11.5 ± 0.82 µM; combination index (CI) ([1]; HL-7702, cotreatment with 25 μM BCP): 1.04; combination index (CI) ([1]; HL-7702, cotreatment with 50 μM BCP): 0.95; combination index (CI) ([1]; HL-7702, cotreatment with 75 μM BCP): 1.01; combination index (CI) ([1]; HL-7702, cotreatment with 100 μM BCP): 0.89; combination index (CI) ([1]; HL-7702, cotreatment with 150 μM BCP): 0.92; fold reduction of IC50 in cotreatment from individual treatment ([1]; HL-7702, cotreatment with 150 μM BCP vs DOX or DDP alone): less than 1.5 fold; IC50 (SMMC-7721 cells [2]): 33.7 ± 1.43 µM; fold lower IC50 in cotreatment than in treatment alone (SMMC-7721 cells [2]; SMMC-7721, cotreatment with 150 μM BCP vs DOX or DDP alone): over 9 fold; IC50 (HepG2 cells [3]): 27.4 ± 2.59 µM; fold lower IC50 in cotreatment than in treatment alone (HepG2 cells [3]; HepG2, cotreatment with 150 μM BCP vs DOX or DDP alone): over 9 fold; apoptotic rate (HL-7702 cells; listed as DDPH): 28.52% ± 1%; apoptotic rate (HL-7702 cells; listed as DDPL): 17.86% ± 0.69% |
